# Patent US20230292747A1, “Composition for use in agriculture” (Bayer Aktiengesellschaft, priority 2020, published 2023)
# Like-named read-outs stand apart in the source and are kept apart here.
# Legend:
# [1] = Measurement of water hardness before and after adding softeners (AQUADUR test strips); format: physicochemical
# Method: (§1) • Soft water (Milli-Q water), self made hard water and very hard water collected from the field (sample A) were used in the assays. Self made hard water was prepared by adding magnesium sulfate to the tap water (440 mg MgSO4/1 L tap water) to achieve 25° d (˜445 ppm). […] The water softeners were used in concentrations described in Table 2. First, the softeners were added to Sample A, self made hard and soft water samples and the water hardness was determined with test strips (see Table 3). Next, Flipper (0,5%, corresponding to a fatty acid derivative content of 2.4 g/l) was mixed to the different water plus softener solutions and subsequently the samples were sprayed on plants infected with aphids. Additionally, another biological product based on fatty acid derivatives (product Neudosan® Neu available from Certis Europe B.V.) was tested in combination with the softener Slox and a softener based on TSCA(in the following named “Coded” (for concentrations see Table 2) in hard vs soft water against aphids as described above. The efficacy of Neudosan (0,5% and 1% corresponding to a fatty acid derivative content of 2.575 g/l and 5,15 g/1) was compared to the efficacy of Flipper (0,5% and 1% corresponding to a fatty acid derivative content of 2.4 g/l and 4,8 g/1) with and without softeners (see Table 5). • Four single-leaf pepper or cotton plants infected with mixed population of Myzus persicae or Aphis gossypii were used in the bioassays. The infected plants were sprayed with the prepared solutions by using an automatic spraying system machine with integrated residue drying and afterwards incubated in a greenhouse chamber under controlled conditions (25±1° C. and 55±5% RH).
# Myzus persicae = assay: Aphid spray bioassay on infected pepper plants, insect mortality on day seven post treatment; format: in vivo; details: day 7
# Method: (§2) • The laboratory colonies of Myzus persicae and Aphis gossypii were reared on pea and cotton plants under controlled conditions 25±1° C. and a 55±5% relative humidity. • Experiments were conducted at RT using pepper (Capsicum annuum) for Myzus persicae and cotton (Gossypium herbaceum) for Aphis gossypii.
# as §1
# (§3) The tests were conducted according to the protocol described in Example 1.
# Aphis gossypii = assay: Aphid spray bioassay on infected cotton plants, insect mortality on day seven post treatment; format: in vivo
# Method: as §2, §1, §3
# pepper (Capsicum annuum) = format: in vivo; details: pepper plants
# [2] = tested on: cotton (Gossypium herbaceum); details: cotton plants
# Method: as §2
# • Soft water (Milli-Q water), self made hard water and very hard water collected from the field (sample A) were used in the assays. Self made hard water was prepared by adding magnesium sulfate to the tap water (440 mg MgSO4/1 L tap water) to achieve 25° d (˜445 ppm). […] The water softeners were used in concentrations described in Table 2. First, the softeners were added to Sample A, self made hard and soft water samples and the water hardness was determined with test strips (see Table 3). Next, Flipper (0,5%, corresponding to a fatty acid derivative content of 2.4 g/l) was mixed to the different water plus softener solutions and subsequently the samples were sprayed on plants infected with aphids. […]
# [3] = field collected water Sample A (>25 °D before), softener at % printed in row
# [4] = field collected water Sample A (>445 ppm before), converted 1 °D = 17.8 ppm
# [5] = self made hard water (25 °D before), softener at % printed in row
# [6] = self made hard water (445 ppm before), converted 1 °D = 17.8 ppm
# [7] = soft water (0 ppm before), converted 1 °D = 17.8 ppm
# [8] = soft water (Milli-Q, 0 °D before), softener at % printed in row
# [9] = 0.5% Flipper + named softener (% printed in row) in self made hard water
# [10] = 0.5% Flipper + named softener (% printed in row) in soft water
# [11] = 0.5% Flipper + named softener (% printed in row) in self made hard water, cotton, day 7
# [12] = 0.5% Flipper + named softener in self made hard water
# [13] = 0.5% Flipper + named softener in soft water
Compound,"Water hardness after adding softener [1, 3] [°D]","Water hardness after adding softener [1, 4] [ppm]","Water hardness after adding softener [1, 5] [°D]","Water hardness after adding softener [1, 6] [ppm]","Water hardness after adding softener [1, 7] [ppm]","Water hardness after adding softener [1, 8] [°D]","Efficacy of 0.5% Flipper against Myzus persicae, after adding softeners (Myzus persicae; [9]) [%]","Efficacy of 0.5% Flipper against Myzus persicae, after adding softeners (Myzus persicae; [10]) [%]","Efficacy of 0.5% Flipper against Aphis gossypii, after adding softeners (Aphis gossypii; [11]) [%]","Efficacy of 0.5% Flipper against Aphis gossypii, after adding softeners (Aphis gossypii; in vivo)",PTX (pepper (Capsicum annuum); [12]),PTX (pepper (Capsicum annuum); [13]),"PTX [2, 12]","PTX [2, 13]","Efficacy of 0.5% Flipper against Aphis gossypii, after adding softeners (Aphis gossypii; 0.5% Flipper + named softener (% printed in row) in soft water, cotton, day 7) [%]"
"O=C(O)CN(CCN(CC(=O)O)CC(=O)O)CC(=O)O [EDTA, Ethylene diamine tetraacetate]",0,0,0,0,0,0,81.25,97,65,72.5 (slight %,strong,Strong,slight,72.5 (slight,–
"O=C([O-])CC(O)(CC(=O)[O-])C(=O)[O-].[Na+].[Na+].[Na+] [TSCA, Trisodium citric acid]",20,356,20,356,0,0,55,67.5,55,–,–,–,–,–,70
